Assay results: patent US20240092790A1, “DIHYDROFUROPYRIDINE DERIVATIVES AS RHO- KINASE INHIBITORS” (CHIESI FARMACEUTICI S.P.A., priority 2020, published 2024)

Key:
Assay type in all cases: biochemical
[1] = target: ROCK1 (Homo sapiens, UniProt Q13464); test: In vitro inhibitory activity assay ROCK1 (ADP-Glo); settings: ATP 200 μM, Cheng-Prusoff; read-out: ROCK 1 (Ki, range of activity)
Experimental: (§1) In Vitro Inhibitory Activity Assay Description ROCK1 and ROCK2
(§2) The effectiveness of compounds of the present invention to inhibit Rho kinase activity can be determined in a 10 μl assay containing 40 mM Tris pH7.5, 20 mM MgCl2 0.1 mg/mL BSA, 50 μM DTT and 2.5 μM peptide substrate (Myelin Basic Protein) using an ADP-Glo kit (Promega). Compounds were dissolved in DMSO such that the final concentration of DMSO was 1% in the assay. All reactions/incubations are performed at 25° C. Compound (2 ul) and either Rho kinase 1 or 2 (4 μl) were mixed and incubated for 30 mins. Reactions were initiated by addition of ATP (4 μl) such that the final concentration of ATP in the assay was 200 μM. After a 1 hour incubation 10 μl of ADP-Glo Reagent was added and after a further 1 hour incubation 20 ul of Kinase Detection Buffer was added and the mixture incubated for a further 45 minutes. The luminescent signal was measured on a luminometer. […] Compounds were tested in dose-response format and the inhibition of kinase activity was calculated at each concentration of compound. To determine the IC50 (concentration of compound required to inhibit 50% of the enzyme activity) data were fit to a plot of % inhibition vs Log 10 compound concentration using a sigmoidal fit with a variable slope and fixing the maximum to 100% and the minimum to 0%. To determine the Ki values the Cheng-Prusoff equation was utilized (Ki=IC50/(1+[S]/Km).

[2] = target: ROCK2 (Homo sapiens, UniProt O75116); test: In vitro inhibitory activity assay ROCK2 (ADP-Glo); settings: ATP 200 μM, Cheng-Prusoff; read-out: ROCK2 (Ki, range of activity)
ROCK2, sequence (O75116 whole entry): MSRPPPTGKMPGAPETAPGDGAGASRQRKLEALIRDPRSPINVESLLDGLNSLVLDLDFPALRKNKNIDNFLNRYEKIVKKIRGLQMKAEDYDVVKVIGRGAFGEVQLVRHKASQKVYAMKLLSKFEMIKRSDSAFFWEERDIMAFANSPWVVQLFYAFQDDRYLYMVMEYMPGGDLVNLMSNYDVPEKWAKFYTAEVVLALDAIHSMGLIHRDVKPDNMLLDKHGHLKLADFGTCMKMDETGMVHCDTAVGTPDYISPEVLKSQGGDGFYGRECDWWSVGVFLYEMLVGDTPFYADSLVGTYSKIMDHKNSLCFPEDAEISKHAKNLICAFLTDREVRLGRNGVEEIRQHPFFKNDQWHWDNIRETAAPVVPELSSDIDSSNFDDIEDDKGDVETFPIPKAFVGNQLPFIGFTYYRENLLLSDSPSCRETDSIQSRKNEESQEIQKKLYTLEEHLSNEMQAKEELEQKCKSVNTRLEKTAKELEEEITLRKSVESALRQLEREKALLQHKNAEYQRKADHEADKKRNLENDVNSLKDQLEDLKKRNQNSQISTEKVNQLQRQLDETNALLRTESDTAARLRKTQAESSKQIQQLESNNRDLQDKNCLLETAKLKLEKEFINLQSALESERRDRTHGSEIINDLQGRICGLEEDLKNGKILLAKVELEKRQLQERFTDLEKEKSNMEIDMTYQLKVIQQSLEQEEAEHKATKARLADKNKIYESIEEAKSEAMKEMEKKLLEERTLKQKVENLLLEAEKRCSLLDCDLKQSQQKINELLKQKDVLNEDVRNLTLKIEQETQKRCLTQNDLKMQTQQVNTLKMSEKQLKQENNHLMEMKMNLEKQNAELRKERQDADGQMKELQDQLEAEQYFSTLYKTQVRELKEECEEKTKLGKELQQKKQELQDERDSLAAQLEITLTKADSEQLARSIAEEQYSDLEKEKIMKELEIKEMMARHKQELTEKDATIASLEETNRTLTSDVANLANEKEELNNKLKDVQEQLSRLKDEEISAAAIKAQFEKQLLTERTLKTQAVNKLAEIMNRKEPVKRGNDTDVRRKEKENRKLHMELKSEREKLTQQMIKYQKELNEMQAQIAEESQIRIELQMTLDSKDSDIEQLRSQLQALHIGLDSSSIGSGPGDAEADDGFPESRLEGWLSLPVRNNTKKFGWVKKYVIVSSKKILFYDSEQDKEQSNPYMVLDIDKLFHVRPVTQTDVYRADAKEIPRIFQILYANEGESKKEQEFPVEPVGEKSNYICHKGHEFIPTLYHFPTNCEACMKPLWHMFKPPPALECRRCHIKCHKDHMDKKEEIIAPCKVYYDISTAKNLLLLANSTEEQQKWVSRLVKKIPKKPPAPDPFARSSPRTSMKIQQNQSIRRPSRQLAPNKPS
Experimental: as §1, §2

[3] = target: PKA (Homo sapiens, UniProt P17612); test: In vitro inhibitory activity assay for PKA (ADP-Glo), reported as selectivity ratio vs ROCK2; settings: Ki value for PKA divided by Ki value of ROCK2
Experimental: In Vitro Inhibitory Activity Assay Description for PKA
The effectiveness of compounds of the present invention to inhibit PKA activity can be determined in a 10 μl assay containing 40 mM Tris pH7.5, 20 mM MgCl2 0.1 mg/ml BSA, 50 μM DTT and 260 μM peptide substrate (kemptide) using an ADP-Glo kit (Promega). Compounds were dissolved in DMSO such that the final concentration of DMSO was 1% in the assay. All reactions/incubations are performed at 25° C. Compound and PKA enzyme (6 μl) were mixed and incubated for 30 mins. Reactions were initiated by addition of ATP (4 μl) such that the final concentration of ATP in the assay was 10 μM. After a 30 minute incubation 10p of ADP-Glo Reagent was added and after a further 1 hour incubation 20 μl of Kinase Detection Buffer was added and the mixture incubated for a further 45 minutes. The luminescent signal was measured on a luminometer. […] Compounds were tested in dose-response format and the inhibition of kinase activity was calculated at each concentration of compound. To determine the IC50 (concentration of compound required to inhibit 50% of the enzyme activity) data were fit to a plot of % inhibition vs Log10 compound concentration using a sigmoidal fit with a variable slope and fixing the maximum to 100% and the minimum to 0%. To determine the Ki values the Cheng-Prusoff equation was utilized (Ki=IC50/(1+[S]/Km).
In vitro inhibitory activities for PKA were reported as selectivity ratio vs. ROCK-2.

ROCK1, sequence (Q13464 whole entry): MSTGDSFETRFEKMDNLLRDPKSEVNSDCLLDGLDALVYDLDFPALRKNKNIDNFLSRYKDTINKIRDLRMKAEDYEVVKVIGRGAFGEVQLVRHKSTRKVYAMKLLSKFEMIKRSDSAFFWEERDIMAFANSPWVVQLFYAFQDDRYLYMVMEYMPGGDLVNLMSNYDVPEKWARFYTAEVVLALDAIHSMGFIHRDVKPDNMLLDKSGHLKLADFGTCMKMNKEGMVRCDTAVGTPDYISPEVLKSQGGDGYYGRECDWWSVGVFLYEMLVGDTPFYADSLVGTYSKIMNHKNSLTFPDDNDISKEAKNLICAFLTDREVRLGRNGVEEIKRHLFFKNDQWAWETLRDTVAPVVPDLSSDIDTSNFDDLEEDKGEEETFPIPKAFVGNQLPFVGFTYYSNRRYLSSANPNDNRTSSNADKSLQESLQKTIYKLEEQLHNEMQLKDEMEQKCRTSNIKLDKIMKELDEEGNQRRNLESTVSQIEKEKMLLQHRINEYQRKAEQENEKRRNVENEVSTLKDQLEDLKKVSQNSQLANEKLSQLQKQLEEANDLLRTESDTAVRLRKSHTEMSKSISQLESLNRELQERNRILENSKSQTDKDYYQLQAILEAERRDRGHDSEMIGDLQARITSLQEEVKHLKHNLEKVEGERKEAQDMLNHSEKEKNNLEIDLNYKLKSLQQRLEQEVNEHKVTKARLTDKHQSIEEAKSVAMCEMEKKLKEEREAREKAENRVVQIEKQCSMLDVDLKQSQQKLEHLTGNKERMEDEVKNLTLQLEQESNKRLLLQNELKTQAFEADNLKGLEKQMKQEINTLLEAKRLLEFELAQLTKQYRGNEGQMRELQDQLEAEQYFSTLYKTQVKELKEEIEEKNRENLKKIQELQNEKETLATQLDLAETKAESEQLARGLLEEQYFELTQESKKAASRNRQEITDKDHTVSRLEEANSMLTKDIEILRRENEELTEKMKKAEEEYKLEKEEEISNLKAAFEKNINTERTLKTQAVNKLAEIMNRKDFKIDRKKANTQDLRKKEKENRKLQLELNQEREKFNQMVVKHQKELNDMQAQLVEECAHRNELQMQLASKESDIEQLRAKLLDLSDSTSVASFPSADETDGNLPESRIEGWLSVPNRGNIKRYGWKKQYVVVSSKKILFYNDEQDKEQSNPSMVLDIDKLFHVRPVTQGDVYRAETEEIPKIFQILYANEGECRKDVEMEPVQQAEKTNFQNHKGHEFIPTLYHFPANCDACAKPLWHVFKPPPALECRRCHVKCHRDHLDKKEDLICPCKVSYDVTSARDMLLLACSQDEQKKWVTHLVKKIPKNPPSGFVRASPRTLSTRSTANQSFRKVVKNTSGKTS

SMILES	Ki [1] [nM]	Ki [2] [nM]	Ratio (PKA/ROCK2) [3]
CC(C)(C)N1CC(CNC(=O)c2cccc(CNc3ncc(-c4ccnc(N)n4)c4c3CCO4)c2)CC1=O (single isomer, unassigned) [Example 33, 3-(((7-(2-Aminopyrimidin-4-yl)-2,3-dihydrofuro[3,2-c]pyridin-4-yl)amino)methyl)-N-((1-(tert-butyl)-5-oxopyrrolidin-3-yl)methyl)benzamide]	≤ 3	≤ 3	*** (ratio≥10)
Nc1nccc(-c2cnc(NCc3cccc(C(=O)NC4CCC4)c3)c3c2OCC3)n1 [Example 1, 3-(((7-(2-Aminopyrimidin-4-yl)-2,3-dihydrofuro[3,2-c]pyridin-4-yl)amino)methyl)-N-cyclobutylbenzamide]	≤ 3	≤ 3	** (5≤ratio<10)
CCOCCNC(=O)c1cccc(CNc2ncc(-c3ccnc(N)n3)c3c2CCO3)c1 [Example 20, 3-(((7-(2-Aminopyrimidin-4-yl)-2,3-dihydrofuro[3,2-c]pyridin-4-yl)amino)methyl)-N-(2-ethoxyethyl)benzamide]	≤ 3	≤ 3	*** (ratio≥10)
Nc1nccc(-c2cnc(NCc3cccc(C(=O)NCCCF)c3)c3c2OCC3)n1 [Example 29, 3-(((7-(2-Aminopyrimidin-4-yl)-2,3-dihydrofuro[3,2-c]pyridin-4-yl)amino)methyl)-N-(3-fluoropropyl)benzamide]	≤ 3	≤ 3	*** (ratio≥10)
CC1(NC(=O)c2cccc(CNc3ncc(-c4ccnc(N)n4)c4c3CCO4)c2)CC1 [Example 22, 3-(((7-(2-Aminopyrimidin-4-yl)-2,3-dihydrofuro[3,2-c]pyridin-4-yl)amino)methyl)-N-(1-methylcyclopropyl)benzamide]	3 to 30	3 to 30	** (5≤ratio<10)
COCCCNC(=O)c1cccc(CNc2ncc(-c3ccnc(N)n3)c3c2CCO3)c1F [Example 55, 3-(((7-(2-Aminopyrimidin-4-yl)-2,3-dihydrofuro[3,2-c]pyridin-4-yl)amino)methyl)-2-fluoro-N-(3-methoxypropyl)benzamide]	3 to 30	≤ 3	*** (ratio≥10)
Nc1nccc(-c2cnc(NCc3cccc(C(=O)NC4CN(C5COC5)C4)c3)c3c2OCC3)n1 [Example 24, 3-(((7-(2-aminopyrimidin-4-yl)-2,3-dihydrofuro[3,2-c]pyridin-4-yl)amino)methyl)-N-(1-(oxetan-3-yl)azetidin-3-yl)benzamide]	≤ 3	≤ 3	*** (ratio≥10)
CO[C@H]1C[C@H](CNC(=O)c2cccc(CNc3ncc(-c4ccnc(N)n4)c4c3CCO4)c2)C1 [Example 39, 3-(((7-(2-Aminopyrimidin-4-yl)-2,3-dihydrofuro[3,2-c]pyridin-4-yl)amino)methyl)-N-(((1R,3R)-3-methoxycyclobutyl)methyl)benzamide]	≤ 3	≤ 3	*** (ratio≥10)
Nc1nccc(-c2cnc(NCc3cccc(C(=O)NCCC(F)F)c3)c3c2OCC3)n1 [Example 50, 3-(((7-(2-Aminopyrimidin-4-yl)-2,3-dihydrofuro[3,2-c]pyridin-4-yl)amino)methyl)-N-(3,3-difluoropropyl)benzamide]	≤ 3	≤ 3	*** (ratio≥10)
CC(C)(C)N1CC(CNC(=O)c2cccc(CNc3ncc(-c4ccnc(N)n4)c4c3CCO4)c2)CC1=O (single isomer, unassigned) [Example 32, 3-(((7-(2-Aminopyrimidin-4-yl)-2,3-dihydrofuro[3,2-c]pyridin-4-yl)amino)methyl)-N-((1-(tert-butyl)-5-oxopyrrolidin-3-yl)methyl)benzamide]	≤ 3	≤ 3	*** (ratio≥10)
CO[C@H]1C[C@@H](NC(=O)c2cccc(CNc3ncc(-c4ccnc(N)n4)c4c3CCO4)c2)C1 [Example 18, 3-(((7-(2-aminopyrimidin-4-yl)-2,3-dihydrofuro[3,2-c]pyridin-4-yl)amino)methyl)-N-((1s,3s)-3-methoxycyclobutyl)benzamide]	≤ 3	≤ 3	*** (ratio≥10)
Nc1nccc(-c2cnc(NCc3ccc(F)c(C(=O)NC4CCOCC4)c3)c3c2OCC3)n1 [Example 58, 5-(((7-(2-Aminopyrimidin-4-yl)-2,3-dihydrofuro[3,2-c]pyridin-4-yl)amino)methyl)-2-fluoro-N-(tetrahydro-2H-pyran-4-yl)benzamide]	3 to 30	≤ 3	*** (ratio≥10)
Nc1nccc(-c2cnc(NCc3cccc(C(=O)NC4CC4)c3)c3c2OCC3)n1 [Example 4, 3-(((7-(2-Aminopyrimidin-4-yl)-2,3-dihydrofuro[3,2-c]pyridin-4-yl)amino)methyl)-N-cyclopropylbenzamide]	≤ 3	≤ 3	*** (ratio≥10)
COCCCNC(=O)c1cc(F)cc(CNc2ncc(-c3ccnc(N)n3)c3c2CCO3)c1 [Example 60, 3-(((7-(2-Aminopyrimidin-4-yl)-2,3-dihydrofuro[3,2-c]pyridin-4-yl)amino)methyl)-5-fluoro-N-(3-methoxypropyl)benzamide]	≤ 3	≤ 3	*** (ratio≥10)
Nc1nccc(-c2cnc(NCc3cccc(C(=O)NCC(F)(F)F)c3)c3c2OCC3)n1 [Example 12, 3-(((7-(2-Aminopyrimidin-4-yl)-2,3-dihydrofuro[3,2-c]pyridin-4-yl)amino)methyl)-N-(2,2,2-trifluoroethyl)benzamide]	3 to 30	≤ 3	*** (ratio≥10)
CC1(C)CC(NC(=O)c2cccc(CNc3ncc(-c4ccnc(N)n4)c4c3CCO4)c2)CO1 (stereo not drawn) [Example 3, 3-(((7-(2-Aminopyrimidin-4-yl)-2,3-dihydrofuro[3,2-c]pyridin-4-yl)amino)methyl)-N-(5,5-dimethyltetrahydrofuran-3-yl)benzamide]	≤ 3	≤ 3	*** (ratio≥10)
COCCCNC(=O)c1ccc(F)c(CNc2ncc(-c3ccnc(N)n3)c3c2CCO3)c1 [Example 62, 3-(((7-(2-Aminopyrimidin-4-yl)-2,3-dihydrofuro[3,2-c]pyridin-4-yl)amino)methyl)-4-fluoro-N-(3-methoxypropyl)benzamide]	> 30	3 to 30	*** (ratio≥10)
Nc1nccc(-c2cnc(NCc3cccc(C(=O)NC[C@@H]4CCCO4)c3)c3c2OCC3)n1 [Example 43, (S)-3-(((7-(2-Aminopyrimidin-4-yl)-2,3-dihydrofuro[3,2-c]pyridin-4-yl)amino)methyl)-N-((tetrahydrofuran-2-yl)methyl)benzamide]	≤ 3	≤ 3	*** (ratio≥10)
CN1CCOC(CNC(=O)c2cccc(CNc3ncc(-c4ccnc(N)n4)c4c3CCO4)c2)C1 (single isomer, unassigned) [Example 35, 3-(((7-(2-Aminopyrimidin-4-yl)-2,3-dihydrofuro[3,2-c]pyridin-4-yl)amino)methyl)-N-((4-methylmorpholin-2-yl)methyl)benzamide]	≤ 3	≤ 3	*** (ratio≥10)
Nc1nccc(-c2cnc(NCc3cccc(C(=O)NCC4CCOCC4)c3)c3c2OCC3)n1 [Example 2, 3-(((7-(2-Aminopyrimidin-4-yl)-2,3-dihydrofuro[3,2-c]pyridin-4-yl)amino)methyl)-N-((tetrahydro-2H-pyran-4-yl)methyl)benzamide]	≤ 3	≤ 3	*** (ratio≥10)
